Results reported in patent US20220281848A1, “PYRAZOLE-SUBSTITUTED PYRROLIDINONES AS HERBICIDES” (FMC Corporation, priority 2019, published 2022).

System: plants
Assay: Test D pre-emergence, other plants of Tables D1 and D3
Assay type: in vivo
Conditions: for ALOMY damage rating / AVEFA damage rating / BEAVA damage rating / BROTE damage rating / BRSNN damage rating / CHEAL damage rating / GALAP damage rating / HORVW damage rating / KCHSC damage rating / LOLPE damage rating / POAAN damage rating / SINAR damage rating / STEME damage rating / VERPE damage rating / damage to plant, ALOMY / damage to plant, AVEFA / damage to plant, BEAVA / damage to plant, BROTE / damage to plant, BRSNN / damage to plant, HORVW / damage to plant, SINAR: pre-emergence, 100=total damage, 0=no damage; for ALOMY damage rating / AVEFA damage rating / BEAVA damage rating / BROTE damage rating / BRSNN damage rating / CHEAL damage rating / GALAP damage rating / HORVW damage rating / KCHSC damage rating / LOLPE damage rating / POAAN damage rating / SINAR damage rating / STEME damage rating / VERPE damage rating: 20 DAA; for ABUTH damage to plant (100=total damage; 0=no damage) / AMARE damage to plant (100=total damage; 0=no damage) / BIDPI damage to plant (100=total damage; 0=no damage) / BRAPL damage to plant (100=total damage; 0=no damage) / CYPES damage to plant (100=total damage; 0=no damage) / DIGSA damage to plant (100=total damage; 0=no damage) / ECHCG damage to plant (100=total damage; 0=no damage) / EPHHL damage to plant (100=total damage; 0=no damage) / GLXMA damage to plant (100=total damage; 0=no damage) / IPOHE damage to plant (100=total damage; 0=no damage) / ORYSA damage to plant (100=total damage; 0=no damage) / PANMI damage to plant (100=total damage; 0=no damage) / SETFA damage to plant (100=total damage; 0=no damage) / SORVU damage to plant (100=total damage; 0=no damage): preemergent
Outline: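 Damage was rated visually from 0 (none) to 100 (total), at 20 DAA for pre-emergence and 15 d for post-emergence. Plants grew from safener-treated seed in a glasshouse at 24/18° C. or 20/16° C. day/night, 65% humidity, watered twice daily.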

CN1CC(c2cc(Cl)n(C)n2)C(C(=O)Nc2ccc(F)c(F)c2F)C1=O (racemic) [Compound 31]
60: BRAPL damage to plant (100=total damage; 0=no damage) (Rates 60, 20 DAA)
20: CHEAL damage rating (Rates 500) | damage to plant, HORVW (rate 500, 20 DAA) | damage to plant, SINAR (rate 500, 20 DAA) | SETFA damage to plant (100=total damage; 0=no damage) (Rates 250, 20 DAA)
90: DIGSA damage to plant (100=total damage; 0=no damage) (Rates 130, 20 DAA) | DIGSA damage to plant (100=total damage; 0=no damage) (Rates 250, 20 DAA) | BRAPL damage to plant (100=total damage; 0=no damage) (Rates 500, 20 DAA) | DIGSA damage to plant (100=total damage; 0=no damage) (Rates 500, 20 DAA) | ECHCG damage to plant (100=total damage; 0=no damage) (Rates 500, 20 DAA) | SETFA damage to plant (100=total damage; 0=no damage) (Rates 500, 20 DAA)
30: VERPE damage rating (Rates 250) | ECHCG damage to plant (100=total damage; 0=no damage) (Rates 60, 20 DAA) | ECHCG damage to plant (100=total damage; 0=no damage) (Rates 130, 20 DAA) | SETFA damage to plant (100=total damage; 0=no damage) (Rates 130, 20 DAA)
10: POAAN damage rating (Rates 500) | STEME damage rating (Rates 500) | damage to plant, AVEFA (rate 500, 20 DAA) | damage to plant, BROTE (rate 500, 20 DAA) | BRAPL damage to plant (100=total damage; 0=no damage) (Rates 30, 20 DAA) | DIGSA damage to plant (100=total damage; 0=no damage) (Rates 30, 20 DAA) | SETFA damage to plant (100=total damage; 0=no damage) (Rates 60, 20 DAA)
50: VERPE damage rating (Rates 500) | DIGSA damage to plant (100=total damage; 0=no damage) (Rates 60, 20 DAA)
80: BRAPL damage to plant (100=total damage; 0=no damage) (Rates 130, 20 DAA) | BRAPL damage to plant (100=total damage; 0=no damage) (Rates 250, 20 DAA) | ECHCG damage to plant (100=total damage; 0=no damage) (Rates 250, 20 DAA)
0: ALOMY damage rating (Rates 15) | ALOMY damage rating (Rates 30) | AVEFA damage rating (Rates 15) | AVEFA damage rating (Rates 30) | BEAVA damage rating (Rates 15) | BEAVA damage rating (Rates 30) | BROTE damage rating (Rates 15) | BROTE damage rating (Rates 30) | BRSNN damage rating (Rates 15) | BRSNN damage rating (Rates 30) | CHEAL damage rating (Rates 15) | CHEAL damage rating (Rates 30) | CHEAL damage rating (Rates 60) | CHEAL damage rating (Rates 130) | CHEAL damage rating (Rates 250) | GALAP damage rating (Rates 15) | GALAP damage rating (Rates 30) | GALAP damage rating (Rates 60) | GALAP damage rating (Rates 130) | GALAP damage rating (Rates 250) | GALAP damage rating (Rates 500) | HORVW damage rating (Rates 15) | HORVW damage rating (Rates 30) | KCHSC damage rating (Rates 15) | KCHSC damage rating (Rates 30) | KCHSC damage rating (Rates 60) | KCHSC damage rating (Rates 130) | KCHSC damage rating (Rates 250) | KCHSC damage rating (Rates 500) | LOLPE damage rating (Rates 15) | LOLPE damage rating (Rates 30) | LOLPE damage rating (Rates 60) | LOLPE damage rating (Rates 130) | LOLPE damage rating (Rates 250) | LOLPE damage rating (Rates 500) | POAAN damage rating (Rates 15) | POAAN damage rating (Rates 30) | POAAN damage rating (Rates 60) | POAAN damage rating (Rates 130) | POAAN damage rating (Rates 250) | SINAR damage rating (Rates 15) | SINAR damage rating (Rates 30) | STEME damage rating (Rates 15) | STEME damage rating (Rates 30) | STEME damage rating (Rates 60) | STEME damage rating (Rates 130) | STEME damage rating (Rates 250) | VERPE damage rating (Rates 15) | VERPE damage rating (Rates 30) | VERPE damage rating (Rates 60) | VERPE damage rating (Rates 130) | damage to plant, ALOMY (rate 60, 20 DAA) | damage to plant, AVEFA (rate 60, 20 DAA) | damage to plant, BEAVA (rate 60, 20 DAA) | damage to plant, BROTE (rate 60, 20 DAA) | damage to plant, BRSNN (rate 60, 20 DAA) | damage to plant, HORVW (rate 60, 20 DAA) | damage to plant, SINAR (rate 60, 20 DAA) | damage to plant, ALOMY (rate 130, 20 DAA) | damage to plant, AVEFA (rate 130, 20 DAA) | damage to plant, BEAVA (rate 130, 20 DAA) | damage to plant, BROTE (rate 130, 20 DAA) | damage to plant, BRSNN (rate 130, 20 DAA) | damage to plant, HORVW (rate 130, 20 DAA) | damage to plant, SINAR (rate 130, 20 DAA) | damage to plant, ALOMY (rate 250, 20 DAA) | damage to plant, AVEFA (rate 250, 20 DAA) | damage to plant, BEAVA (rate 250, 20 DAA) | damage to plant, BROTE (rate 250, 20 DAA) | damage to plant, BRSNN (rate 250, 20 DAA) | damage to plant, HORVW (rate 250, 20 DAA) | damage to plant, SINAR (rate 250, 20 DAA) | damage to plant, ALOMY (rate 500, 20 DAA) | damage to plant, BEAVA (rate 500, 20 DAA) | damage to plant, BRSNN (rate 500, 20 DAA) | ABUTH damage to plant (100=total damage; 0=no damage) (Rates 15, 20 DAA) | AMARE damage to plant (100=total damage; 0=no damage) (Rates 15, 20 DAA) | BIDPI damage to plant (100=total damage; 0=no damage) (Rates 15, 20 DAA) | BRAPL damage to plant (100=total damage; 0=no damage) (Rates 15, 20 DAA) | CYPES damage to plant (100=total damage; 0=no damage) (Rates 15, 20 DAA) | DIGSA damage to plant (100=total damage; 0=no damage) (Rates 15, 20 DAA) | ECHCG damage to plant (100=total damage; 0=no damage) (Rates 15, 20 DAA) | EPHHL damage to plant (100=total damage; 0=no damage) (Rates 15, 20 DAA) | GLXMA damage to plant (100=total damage; 0=no damage) (Rates 15, 20 DAA) | IPOHE damage to plant (100=total damage; 0=no damage) (Rates 15, 20 DAA) | ORYSA damage to plant (100=total damage; 0=no damage) (Rates 15, 20 DAA) | PANMI damage to plant (100=total damage; 0=no damage) (Rates 15, 20 DAA) | SETFA damage to plant (100=total damage; 0=no damage) (Rates 15, 20 DAA) | SORVU damage to plant (100=total damage; 0=no damage) (Rates 15, 20 DAA) | ABUTH damage to plant (100=total damage; 0=no damage) (Rates 30, 20 DAA) | AMARE damage to plant (100=total damage; 0=no damage) (Rates 30, 20 DAA) | BIDPI damage to plant (100=total damage; 0=no damage) (Rates 30, 20 DAA) | CYPES damage to plant (100=total damage; 0=no damage) (Rates 30, 20 DAA) | ECHCG damage to plant (100=total damage; 0=no damage) (Rates 30, 20 DAA) | EPHHL damage to plant (100=total damage; 0=no damage) (Rates 30, 20 DAA) | GLXMA damage to plant (100=total damage; 0=no damage) (Rates 30, 20 DAA) | IPOHE damage to plant (100=total damage; 0=no damage) (Rates 30, 20 DAA) | ORYSA damage to plant (100=total damage; 0=no damage) (Rates 30, 20 DAA) | PANMI damage to plant (100=total damage; 0=no damage) (Rates 30, 20 DAA) | SETFA damage to plant (100=total damage; 0=no damage) (Rates 30, 20 DAA) | SORVU damage to plant (100=total damage; 0=no damage) (Rates 30, 20 DAA) | ABUTH damage to plant (100=total damage; 0=no damage) (Rates 60, 20 DAA) | AMARE damage to plant (100=total damage; 0=no damage) (Rates 60, 20 DAA) | BIDPI damage to plant (100=total damage; 0=no damage) (Rates 60, 20 DAA) | CYPES damage to plant (100=total damage; 0=no damage) (Rates 60, 20 DAA) | EPHHL damage to plant (100=total damage; 0=no damage) (Rates 60, 20 DAA) | GLXMA damage to plant (100=total damage; 0=no damage) (Rates 60, 20 DAA) | IPOHE damage to plant (100=total damage; 0=no damage) (Rates 60, 20 DAA) | ORYSA damage to plant (100=total damage; 0=no damage) (Rates 60, 20 DAA) | PANMI damage to plant (100=total damage; 0=no damage) (Rates 60, 20 DAA) | SORVU damage to plant (100=total damage; 0=no damage) (Rates 60, 20 DAA) | ABUTH damage to plant (100=total damage; 0=no damage) (Rates 130, 20 DAA) | AMARE damage to plant (100=total damage; 0=no damage) (Rates 130, 20 DAA) | BIDPI damage to plant (100=total damage; 0=no damage) (Rates 130, 20 DAA) | CYPES damage to plant (100=total damage; 0=no damage) (Rates 130, 20 DAA) | EPHHL damage to plant (100=total damage; 0=no damage) (Rates 130, 20 DAA) | GLXMA damage to plant (100=total damage; 0=no damage) (Rates 130, 20 DAA) | IPOHE damage to plant (100=total damage; 0=no damage) (Rates 130, 20 DAA) | ORYSA damage to plant (100=total damage; 0=no damage) (Rates 130, 20 DAA) | PANMI damage to plant (100=total damage; 0=no damage) (Rates 130, 20 DAA) | SORVU damage to plant (100=total damage; 0=no damage) (Rates 130, 20 DAA) | ABUTH damage to plant (100=total damage; 0=no damage) (Rates 250, 20 DAA) | AMARE damage to plant (100=total damage; 0=no damage) (Rates 250, 20 DAA) | BIDPI damage to plant (100=total damage; 0=no damage) (Rates 250, 20 DAA) | CYPES damage to plant (100=total damage; 0=no damage) (Rates 250, 20 DAA) | EPHHL damage to plant (100=total damage; 0=no damage) (Rates 250, 20 DAA) | GLXMA damage to plant (100=total damage; 0=no damage) (Rates 250, 20 DAA) | IPOHE damage to plant (100=total damage; 0=no damage) (Rates 250, 20 DAA) | ORYSA damage to plant (100=total damage; 0=no damage) (Rates 250, 20 DAA) | PANMI damage to plant (100=total damage; 0=no damage) (Rates 250, 20 DAA) | SORVU damage to plant (100=total damage; 0=no damage) (Rates 250, 20 DAA) | ABUTH damage to plant (100=total damage; 0=no damage) (Rates 500, 20 DAA) | AMARE damage to plant (100=total damage; 0=no damage) (Rates 500, 20 DAA) | BIDPI damage to plant (100=total damage; 0=no damage) (Rates 500, 20 DAA) | CYPES damage to plant (100=total damage; 0=no damage) (Rates 500, 20 DAA) | EPHHL damage to plant (100=total damage; 0=no damage) (Rates 500, 20 DAA) | GLXMA damage to plant (100=total damage; 0=no damage) (Rates 500, 20 DAA) | IPOHE damage to plant (100=total damage; 0=no damage) (Rates 500, 20 DAA) | ORYSA damage to plant (100=total damage; 0=no damage) (Rates 500, 20 DAA) | PANMI damage to plant (100=total damage; 0=no damage) (Rates 500, 20 DAA) | SORVU damage to plant (100=total damage; 0=no damage) (Rates 500, 20 DAA)
